Laboratory results as given in US20120277209A1, “PYRAZINE COMPOUNDS AS PHOSPHODIESTERASE 10 INHIBITORS” (Amgen Inc., priority 2009, published 2012).

Biological target: PDE10 (UniProt Q9Y233)
Test: PDE10 enzyme inhibition, IMAP TR-FRET assay (MPDE10A7 Enzyme Activity and Inhibition)
Format: biochemical
Conditions: IC50 class against PDE10; read-out: IC50
Method in brief: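 PDE10A enzyme or tissue homogenate preincubated with compounds 30 min at room temperature, then fluorescein-labelled cAMP or cGMP added for 60 min. IMAP binding reagent stop, TR-FRET read. Values are mean IC50s, grouped into five potency classes.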

Compound | IC50
FC1(c2nccnc2Oc2ccc(Nc3nc4ccccc4s3)cc2)CCOCC1 [Example 204, N-(4-(3-(4-FLUOROTETRAHYDRO-2H-PYRAN-4-YL)PYRAZIN-2-YLOXY)PHENYL)BENZO[D]THIAZOL-2-AMINE] | < 25 nM
COc1ncccc1-c1nccnc1Oc1ccc(C(=O)c2nc3cc(F)ccc3[nH]2)cc1 [Example 117, (5-fluoro-1H-benzo[d]imidazol-2-yl)(4-(3-(2-methoxypyridin-3-yl)pyrazin-2-yloxy)phenyl)methanone] | 25 to 100 nM
FCCN1CCC(c2nccnc2Oc2ccc(Nc3nc4ccccc4s3)cc2)CC1 [Example 236, N-(4-(3-(1-(2-fluoroethyl)piperidin-4-yl)pyrazin-2-yloxy)phenyl)benzo [d]thiazol-2-amine] | < 25 nM
Cn1c(C(=O)c2ccc(Oc3nccnc3C3CCOCC3)cc2)nc2ccccc21 [Example 184, (1-methyl-1H-benzo[d]imidazol-2-yl)(4-(3-(tetrahydro-2H-pyran-4-yl)pyrazin-2-yloxy)phenyl)methanone] | < 25 nM
O=C(c1ccc(Oc2nccnc2-c2cccnc2)cc1)c1nc2ccccc2[nH]1 [Example 123, (1H-benzo[d]imidazol-2-yl)(4-(3-(pyridin-3-yl)pyrazin-2-yloxy)phenyl)methanone] | < 25 nM
COCC1CCN(c2nccnc2Oc2ccc(Nc3nc4ccccc4s3)cc2)CC1 [Example 87, N-(4-(3-(4-(methoxymethyl)-piperidin-1-yl)pyrazin-2-yl-oxy)phenyl)benzo[d]thiazol-2-amine] | 25 to 100 nM
c1ccc2sc(Nc3ccc(Oc4nccnc4C4CCCC4)cc3)nc2c1 [compound 223, N-(4-(3-cyclopentylpyrazin-2-yloxy)phenyl)benzo [d]thiazol-2-amine] | < 25 nM
CC(=O)N1CCCC(c2nccnc2Oc2ccc(C(=O)c3nc4ccccc4[nH]3)cc2)C1 (racemic) [Example 251, 1-(3-(3-(4-(1H-benzo[d]imidazole-2-carbonyl)phenoxy)pyrazin-2-yl)piperidin-1-yl)ethanone 2,2,2-trifluoroacetate] | < 25 nM
O=C(c1ccc(Oc2nccnc2OCc2ccncc2)cc1)c1nc2ccccc2[nH]1 [Example 176, (1H-benzo[d]imidazol-2-yl)(4-(3-(pyridin-4-ylmethoxy)pyrazin-2-yloxy)phenyl)methanone] | 100 to 250 nM
O=C(c1ccc(Oc2nccnc2[C@H]2CCC[C@H](O)C2)cc1)c1nc2ccccc2[nH]1 (racemic) [Example 190, (rac)-trans-(1H-benzo[d]imidazol-2-yl)(4-(3-(3-hydroxycyclohexyl)pyrazin-2-yloxy)phenyl)methanone] | < 25 nM
CN1CCN(c2nccnc2Oc2ccc(Nc3nc4ccccc4s3)cc2)CC1 [Example 72, N-(4-(3-(4-methylpiperazin-1-yl)pyrazin-2-yloxy)phenyl)-benzo[d]thiazol-2-amine] | 25 to 100 nM
O=C(c1ccc(Oc2nccnc2C2CCCOCC2)cc1)c1nc2ccccc2[nH]1 (centres unmarked) [Example 198, (1H-benzo[d]imidazol-2-yl)(4-(3-(oxepan-4-yl)pyrazin-2-yloxy)phenyl)methanone] | < 25 nM
CCCOc1nccnc1Oc1ccc(C(=O)c2nc3ccccc3[nH]2)cc1 [Example 180, (1H-benzo[d]imidazol-2-yl)(4-(3-propoxypyrazin-2-yloxy)phenyl)methanone] | 1000 to 5000 nM
CC1(C)C=C(c2nccnc2Oc2ccc(C(=O)c3nc4ccccc4[nH]3)cc2)C(=O)CC1 [Example 132, 2-(3-(4-(1H-benzo[d]imidazole-2-carbonyl)phenoxy)pyrazin-2-yl)-4,4-dimethylcyclohex-2-enone] | 25 to 100 nM
Fc1ccc2sc(Nc3ccc(Oc4nccnc4C4CCOCC4)cc3)nc2c1 [Example 218, 5-fluoro-N-(4-(3-(tetrahydro-2H-pyran-4-yl)pyrazin-2-yloxy)phenyl)benzo[d]thiazol-2-amine] | < 25 nM
CC(C)Oc1nccnc1Oc1ccc(C(=O)c2nc3ccccc3[nH]2)cc1 [Example 161, (1H-benzo[d]imidazol-2-yl)(4-(3-isopropoxypyrazin-2-yloxy)phenyl)methanone] | 1000 to 5000 nM

Same assay, conditions: PDE10 enzyme inhibition; average IC50 data for each compound; read-out: Average IC50

Compound | IC50
O=C(c1ccc(Oc2nccnc2N2CCC[C@H](CCO)C2)cc1)c1nc2ccccc2[nH]1 (stereo in doubt) | 1.86 nM
O=C(c1ccc(Oc2nccnc2C2=CC[C@@H](O)CC2)cc1)c1nc2ccccc2[nH]1 (racemic) | 1.69 nM
CO[C@@H]1CC=C(c2nccnc2Oc2ccc(C(=O)c3nc4ccccc4[nH]3)cc2)CC1 (stereo in doubt) | 4 nM
O=C(c1ccc(Oc2nccnc2[C@@H]2CCC[C@@H](O)C2)cc1)c1nc2ccccc2[nH]1 | 0.992 nM
Cn1c(C(=O)c2ccc(Oc3nccnc3Cl)cc2)nc2ccccc21 | 187 nM
C[C@@H](F)C(=O)N1CCC(c2nccnc2Oc2ccc(C(=O)c3nc4ccccc4[nH]3)cc2)CC1 (stereo in doubt) | 0.132 nM

The remaining lines, values ahead:

IC50 | Compound
0.577 nM | COc1ccc(-c2nccnc2Oc2ccc(C(=O)c3nc4ccccc4[nH]3)cc2)c(OC)n1 [drawing 955]
0.059 nM | CC(=O)N1CCC(c2nccnc2Oc2ccc(Nc3nc4ccccc4s3)cc2)CC1 [drawing 893]
56.6 nM | CC(C)Oc1nccnc1Oc1ccc(C(=O)c2nc3ccccc3[nH]2)cc1 [drawing 844]
245 nM | COC(=O)C1(c2nccnc2Oc2ccc(Nc3nc4ccccc4s3)cc2)CCN(C(=O)OC(C)(C)C)CC1 [drawing 869]
63.8 nM | N#Cc1ccc(-c2nccnc2Oc2ccc(Nc3nc4ccccc4s3)cc2)cn1 [drawing 777]
33 nM | COC(=O)c1ccc(-c2nccnc2Oc2ccc(C(=O)c3nc4ccccc4[nH]3)cc2)cc1 [drawing 758]
78 nM | c1ccc2sc(Nc3ccc(Oc4nccnc4-c4ccc(N5CCOCC5)nc4)cc3)nc2c1 [drawing 762]
14 nM | O=C(c1ccc(Oc2nccnc2OCc2ccncc2)cc1)c1nc2ccccc2[nH]1 [drawing 859]
2.68 nM | COc1ncccc1-c1nccnc1Oc1ccc(Nc2nc3ccccc3s2)c(F)c1 [drawing 972]
43.6 nM | COc1nccnc1Oc1ccc(C(=O)c2nc3ccccc3[nH]2)cc1 [drawing 843]
8.17 nM | OC1CCN(c2nccnc2Oc2ccc(Nc3nc4ccccc4s3)cc2)CC1 [drawing 717]
8.05 nM | O=C(c1ccc(Oc2nccnc2-c2cccnc2)cc1)c1nc2ccccc2[nH]1 [drawing 754]
14.6 nM | Clc1ccc(-c2nccnc2Oc2ccc(Nc3nc4ccccc4s3)cc2)cn1 [drawing 794]

Same assay, conditions: PDE10 enzyme inhibition; chiral compounds separated from racemic mixtures; read-out: IC50

Compound | IC50
C[C@@H](F)C(=O)N1CCC(c2nccnc2Oc2ccc(Nc3nc4ccccc4s3)cc2)CC1 [Example 279, (R)-1-(4-(3-(4-(benzo[d]thiazol-2-ylamino)phenoxy)pyrazin-2-yl)piperidin-1-yl)-2-fluoropropan-1-one] | < 25 nM
N#C[C@H]1CCN(c2nccnc2Oc2ccc(C(=O)c3nc4ccccc4[nH]3)cc2)C1 [Example 262, (S)-1-(3-(4-(1H-benzo[d]imidazole-2-carbonyl)phenoxy)pyrazin-2-yl)pyrrolidine-3-carbonitrile] | < 25 nM
O[C@H]1CCC[C@H](c2nccnc2Oc2ccc(Nc3nc4ccccc4s3)cc2)C1 [Example 275, (1S,3S)-3-(3-(4-(benzo[d]thiazol-2-ylamino)phenoxy)pyrazin-2-yl)cyclohexanol] | < 25 nM
